Experimental data from ChEMBL document CHEMBL1140142, “Myxochromide B3, a new member of the myxochromide family of secondary metabolites” (J Nat Prod, 2008).
The source made the active and inactive calls.

Tests used:
Format in all cases: functional, organism-based
Escherichia coli = assay: Antimicrobial activity against Escherichia coli at 50 ug/disk by disk diffusion assay
Mycotypha microspora = assay: Antimicrobial activity against Mycotypha microspora at 50 ug/disk by disk diffusion assay
[Chlorella] fusca = Antimicrobial activity against Chlorella fusca at 50 ug/disk by disk diffusion assay; conditions: Scenedesmus fuscus
Priestia megaterium = assay: Antimicrobial activity against Bacillus megaterium at 50 ug/disk by disk diffusion assay
Aspergillus ruber = assay: Antimicrobial activity against Eurotium rubrum at 50 ug/disk by disk diffusion assay
Microbotryum violaceum = assay: Antimicrobial activity against Microbotryum violaceum at 50 ug/disk by disk diffusion assay

Measured: Activity

C/C=C/C=C/C=C/C=C/C=C/C=C/C=C/C=C/C(=O)N(C)[C@@H]1C(=O)N[C@H](C)C(=O)N[C@@H](CC(C)C)C(=O)N2CCC[C@H]2C(=O)N[C@@H](C)C(=O)N[C@@H](CCC(N)=O)C(=O)O[C@@H]1C
inactive: all assays above

C/C=C/C=C/C=C/C=C/C=C/C=C/C=C/C=C/C(=O)N(C)[C@@H]1C(=O)N[C@H](C)C(=O)N[C@@H](CC(C)C)C(=O)N[C@@H](CC(C)C)C(=O)N2CCC[C@H]2C(=O)N[C@@H](C)C(=O)N[C@@H](CCC(N)=O)C(=O)O[C@@H]1C
inactive: all assays above
